Like-named read-outs stand apart in the source and are kept apart here. *1 amine or outer side, *2 acyl side, *3 side chain or, on linkers, in order; H or OH if unused. Where a SMILES comes first, the peptide text is derived from it. Bridges are numbered along the chain shown (N, C = ends). [ ]: non-standard residue; d: D form. The star is where a group is joined. pTerphenylCO(4''-OnC5H11) = CCCCCOc1ccc(-c2ccc(-c3ccc(C(=O)*)cc3)cc2)cc1; Orn(4R-OH,5R-OH) = O=C([C@H](C[C@@H](O)[C@@H](O)N[*:3])N[*:1])[*:2]; hTyr(3S-OH,4S-OH) = N[C@H](C(=O)O)[C@H](O)[C@@H](O)c1ccc(O)cc1; Pro(3S-OH,4S-Me) = C[C@H]1CN[C@H](C(=O)O)[C@H]1O; Hyp = O=C(O)[C@@H]1C[C@@H](O)CN1
Experiments:
[1] = tested on: SARS-CoV-2-ΔOrf7a-NLuc virus; experiment: microbe, parasite or virus in culture; type: cell-based; conditions: for activity at 10 µM: Severe acute respiratory syndrome coronavirus 2, Vero, 72 h, read-out: Mean relative luminescence (n=4); for activity at 10 µM / Mean relative luminescence (n=4): 1 = untreated, 0 = total inhibition
[2] = tested on: SARS-CoV-2-ΔOrf7a-NLuc virus; experiment: microbe, parasite or virus in culture; type: cell-based
recombinant NLuc = type: biochemical; conditions: for Relative Recombinant NLUC: recombinant NLuc activity relative to DMSO; for Reads Counts per second (read 1) / Reads Counts per second (read 4) / Reads Counts per second (read 2) / Reads Counts per second (read 3): recombinant NLuc; for Reads Counts per second (read 1): first read column; for Reads Counts per second (read 4): fourth read column; for Reads Counts per second (read 3): third read column
Vero cells = conditions: Vero cells, 10 μM; 1 = DMSO-treated infected cells

Compound	effect on virus replication [1]	effect on virus replication [2]	% activity in Vero 100PFU screen [1] [%]	activity at 10 µM [1] [%]	Relative Recombinant NLUC (recombinant NLuc)	Reads Counts per second (read 1) (recombinant NLuc) [Counts per second]	Reads Counts per second (read 4) (recombinant NLuc) [Counts per second]	Reads Counts per second (read 2) (recombinant NLuc) [Counts per second]	Reads Counts per second (read 3) (recombinant NLuc) [Counts per second]	PrestoBlue relative viability (Vero cells)	Mean relative luminescence (n=4) [1]
CC(C)c1nc(CN(C)C(=O)N[C@H](C(=O)N[C@@H](Cc2ccccc2)C[C@H](O)[C@H](Cc2ccccc2)NC(=O)OCc2cncs2)C(C)C)cs1 [Ritonavir]	failed to halt replication of SARS-CoV-2	failed to halt replication of SARS-CoV-2	–	–	–	–	–	–	–	–	–
Cc1cccc(C)c1OCC(=O)N[C@@H](Cc1ccccc1)[C@@H](O)C[C@H](Cc1ccccc1)NC(=O)[C@H](C(C)C)N1CCCNC1=O [Lopinavir]	failed to halt replication of SARS-CoV-2	failed to halt replication of SARS-CoV-2	–	–	–	–	–	–	–	–	–
CCCCCOc1ccc(-c2ccc(-c3ccc(C(=O)N[C@H]4C[C@@H](O)[C@@H](O)NC(=O)[C@@H]5[C@@H](O)[C@@H](C)CN5C(=O)[C@H]([C@@H](C)O)NC(=O)[C@H]([C@H](O)[C@@H](O)c5ccc(O)cc5)NC(=O)[C@@H]5C[C@@H](O)CN5C(=O)[C@H]([C@@H](C)O)NC4=O)cc3)cc2)cc1 [Anidulafungin] ({pTerphenylCO(4''-OnC5H11)}-[Orn(4R-OH,5R-OH)]T[Hyp][hTyr(3S-OH,4S-OH)]T[Pro(3S-OH,4S-Me)]; lactam 1-C)	–	–	4.57	2.32	0.974	365229	366012	376574	364202	0.5453	–
C=CC(=O)Nc1cccc(Nc2nc(Nc3ccc(N4CCN(C(C)=O)CC4)cc3OC)ncc2C(F)(F)F)c1 [CO-1686 (AVL-301)]	–	–	3	–	0.8551	327566	319872	–	324163	0.5096	0.02339
CN1CCN(CCCN2c3ccccc3Sc3ccc(C(F)(F)F)cc32)CC1.Cl.Cl [Trifluoperazine 2HCl]	–	–	7	–	0.9397	358281	360671	–	348422	0.6995	0.05678
CC1=NN(c2ccc(C)c(C)c2)C(=O)/C1=N\Nc1cccc(-c2cccc(C(=O)O)c2)c1O [Eltrombopag]	–	–	3.72	0.991	0.8666	331875	322913	–	331553	0.7191	–
O=C(/C=C/c1cccc(S(=O)(=O)Nc2ccccc2)c1)NO [Belinostat (PXD101), Belinostat]	–	–	4.67	0.0366	0.9408	351877	355423	362403	352055	0.895	–
Cl.Fc1ccc([C@@H]2CCNC[C@H]2COc2ccc3c(c2)OCO3)cc1 [Paroxetine HCl]	–	–	12	–	0.9732	360169	368856	–	369849	1.088	0.09097
CC[C@@H]([C@H](C)O)n1ncn(-c2ccc(N3CCN(c4ccc(OC[C@@H]5CO[C@@](Cn6cncn6)(c6ccc(F)cc6F)C5)cc4)CC3)cc2)c1=O [Posaconazole]	–	–	6	5.17	0.8565	325406	315077	–	324458	0.7676	–
CCCCCCCCc1ccc(CCC(N)(CO)CO)cc1 [Fingolimod (FTY720), Fingolimod]	–	–	3	0.757	0.9393	354171	351555	–	356587	0.6911	–
C[C@]12CC[C@H](O)CC1=CC[C@@H]1[C@@H]2CC[C@]2(C)C(c3cccnc3)=CC[C@@H]12 [Abiraterone]	–	–	6.46	6.48	0.7592	279631	289231	289523	288897	0.5649	–
Br.Cc1ccc(Sc2ccccc2N2CCNCC2)c(C)c1 [Vortioxetine (Lu AA21004) HBr]	–	–	1.39	–	0.7479	280784	284019	–	284246	0.509	0.007391
CSc1nc2cc(Cl)c(Oc3cccc(Cl)c3Cl)cc2[nH]1 [Triclabendazole]	–	–	12	9.74	0.8923	335937	339544	–	336143	0.62	–
Cc1ccc(Sc2ccccc2N2CCNCC2)c(C)c1 [Vortioxetine]	–	–	6	4.21	0.8732	326546	332965	–	329264	0.6088	–
COc1cc2c(Oc3ccc4[nH]c(C)cc4c3F)ncnc2cc1OCCCN1CCCC1 [Cediranib (AZD217), Cediranib]	–	–	3.31	2.67	0.9439	350524	362844	–	354116	0.559	–
CC(C)(Sc1cc(C(C)(C)C)c(O)c(C(C)(C)C)c1)Sc1cc(C(C)(C)C)c(O)c(C(C)(C)C)c1 [Probucol]	–	–	5	2.23	0.9023	337686	339611	–	341300	0.7536	–
